As a reminder, the IC50 is the concentration needed to halve the response being measured. Lower therefore signals higher potency.

SMILES strings stand for the structures. Where only a bound is given, the exact number is not on record here.

Assay [1] in a line: Cytotoxicity against human MES-SA/Dx5-Rx1 cells. The format is functional, cell-based.
Assay [2] in a line: Cytotoxicity against human MES-SA cells. The format is functional, cell-based.
A further assay concerns MES-SA. Nature of the assay: Resistance ratio of IC50 for human MES-SA/Dx5-Rx1 cells to IC50 for human MES-SA cells. The format is functional.

On to `C=C1C[C@@H]2CC[C@@]34C[C@H]5O[C@@H]6[C@@H](O3)[C@H]3O[C@H](CC[C@@H]3O[C@H]6[C@H]5O4)CC(=O)C[C@@H]3[C@@H](OC)[C@@H](C[C@H](O)CO)O[C@H]3C[C@H]3O[C@@H](CC[C@@H]1O2)C[C@@H](C)C3=C`, for which the IC50 came to 6.5 nM in assay [1] and 0.03 nM in assay [2]. The “Ratio IC50” value in the assay on MES-SA stood at 220.

`C=C1C[C@@H]2CC[C@@]34C[C@H]5O[C@@H]6[C@@H](O3)[C@H]3O[C@H](CC[C@@H]3O[C@H]6[C@H]5O4)CC(=O)C[C@@H]3[C@@H](OC)[C@@H](CC(C)O)O[C@H]3C[C@H]3O[C@@H](CC[C@@H]1O2)C[C@@H](C)C3=C` (stereo not given in full): the IC50 is 4.8 nM in assay [1] and 0.29 nM in assay [2]. Also, in the assay on MES-SA, the “Ratio IC50” value is on record as 17.

In assay [1], `CC(=O)O[C@H]1C(=O)[C@@]2(C)[C@H]([C@H](OC(=O)c3ccccc3)[C@]3(O)C[C@H](OC(=O)[C@H](O)[C@@H](NC(=O)c4ccccc4)c4ccccc4)C(C)=C1C3(C)C)[C@]1(OC(C)=O)CO[C@@H]1C[C@@H]2O` [PACLITAXEL] gave a 50% inhibitory concentration (IC50) of more than 1000 nM.

Consider `C=C1C[C@@H]2CC[C@@]34C[C@H]5O[C@@H]6[C@@H](O3)[C@H]3O[C@H](CC[C@@H]3O[C@H]6[C@H]5O4)CC(=O)C[C@@H]3[C@@H](OC)[C@@H](C[C@H](O)COC)O[C@H]3C[C@H]3O[C@@H](CC[C@@H]1O2)C[C@@H](C)C3=C`, for which the figures for the half-maximal inhibitory concentration (IC50) in assay [1] and in assay [2] were 2.8 nM and 0.17 nM, respectively. Moreover, the “Ratio IC50” value with MES-SA was 17.

For the compound `C=C1C[C@@H]2CC[C@@]34C[C@H]5O[C@@H]6[C@@H](O3)[C@H]3O[C@H](CC[C@@H]3O[C@H]6[C@H]5O4)CC(=O)C[C@@H]3[C@@H](OC)[C@@H](CC(O)CCCCCC)O[C@H]3C[C@H]3O[C@@H](CC[C@@H]1O2)C[C@@H](C)C3=C` (stereo not given in full), the IC50 is 2.1 nM in assay [1] and 0.46 nM in assay [2]. Further, the “Ratio IC50” value in the assay on MES-SA is given as 4.6.

Consider `C=C1C[C@@H]2CC[C@@]34C[C@H]5O[C@@H]6[C@@H](O3)[C@H]3O[C@H](CC[C@@H]3O[C@H]6[C@H]5O4)CC(=O)C[C@@H]3[C@@H](OC)[C@@H](CC(O)CCCC)O[C@H]3C[C@H]3O[C@@H](CC[C@@H]1O2)C[C@@H](C)C3=C` (stereo not given in full), for which the values for the IC50 in assay [1] and in assay [2] were 0.91 nM and 0.22 nM, respectively. Besides, in the assay with MES-SA, the “Ratio IC50” value was determined as 4.2.

`C=C1C[C@@H]2CC[C@@]34C[C@H]5O[C@H]6[C@@H](O3)[C@H]3O[C@H](CC[C@@H]3O[C@H]6[C@H]5O4)CC(=O)C[C@@H]3[C@@H](OC)[C@@H](C[C@H](O)CN)O[C@H]3C[C@H]3O[C@@H](CC[C@@H]1O2)C[C@@H](C)C3=C.CS(=O)(=O)O` [ERIBULIN MESYLATE]: the IC50 turned out to be 3100 nM in assay [1] and 1.7 nM in assay [2]. Further, the “Ratio IC50” value with MES-SA is 1800.

Take `C=C1C[C@@H]2CC[C@@]34C[C@H]5O[C@@H]6[C@@H](O3)[C@H]3O[C@H](CC[C@@H]3O[C@H]6[C@H]5O4)CC(=O)C[C@@H]3[C@@H](OC)[C@@H](CCO)O[C@H]3C[C@H]3O[C@@H](CC[C@@H]1O2)C[C@@H](C)C3=C`: the IC50 was determined as 100 nM in assay [1] and 3 nM in assay [2]. Also, the “Ratio IC50” value in the assay with MES-SA was determined as 33.

Turning to `C=C1C[C@@H]2CC[C@@]34C[C@H]5O[C@@H]6[C@@H](O3)[C@H]3O[C@H](CC[C@@H]3O[C@H]6[C@H]5O4)CC(=O)C[C@@H]3[C@@H](OC)[C@@H](CC(O)CCCCCCCC)O[C@H]3C[C@H]3O[C@@H](CC[C@@H]1O2)C[C@@H](C)C3=C` (stereo not given in full), the IC50 was found to be 5.6 nM in assay [1] and 0.77 nM in assay [2]. In addition, in the assay with MES-SA, the “Ratio IC50” value came out at 7.2.

Source of the values: ChEMBL document CHEMBL2203221, “Atom-based enumeration: new eribulin analogues with low susceptibility to P-glycoprotein-mediated drug efflux” (Bioorg Med Chem Lett, 2012).
